Source: ChEMBL document CHEMBL5338766, “X-ray Crystal Structure-Guided Discovery of Novel Indole Analogues as Colchicine-Binding Site Tubulin Inhibitors with Immune-Potentiating and Antitumor Effects against Melanoma” (J Med Chem, 2023)
Active and inactive are the calls of the source. The rule behind the calls is not given here.

How the values were obtained:
[1] = Toxicity in C57 mouse implanted with mouse B16-F10 cells assessed as pathological changes in kidney at 5 mg/kg, ip administered every day for 14 days by H&E staining based microscopic analysis; assay type: organism-based; conditions: in vivo, 336 h, time 14 day
[2] = AUC (0 to infinity) in Sprague-Dawley rat at 20 mg/kg, po measured upto 12 hrs by UPLC-MS/ESI analysis; assay type: ADME, organism-based; parameters: dose 20 mg/kg, time < 12 hrs, route po; conditions: in vivo
[3] = tested on: HepG2; experiment: Induction of apoptosis in human HepG2 cells assessed as early apoptotic cells at 5 nM incubated for 48 hrs by Annexin V-FITC/PI staining based flow cytometric analysis (reference value: 7.01 %); assay type: functional
[4] = molecular target: Tubulin (Sus scrofa, UniProt P02554+P02550); experiment: (§1) Inhibition of pig brain tubulin polymerization in the presence of GTP by spectrophotometric analysis; assay type: tissue-based
[5] = molecular target: Tubulin (Sus scrofa) (UniProt P02554+P02550); experiment: as §1; assay type: tissue-based
Tubulin (Sus scrofa), sequence (P02550 whole entry, looked up): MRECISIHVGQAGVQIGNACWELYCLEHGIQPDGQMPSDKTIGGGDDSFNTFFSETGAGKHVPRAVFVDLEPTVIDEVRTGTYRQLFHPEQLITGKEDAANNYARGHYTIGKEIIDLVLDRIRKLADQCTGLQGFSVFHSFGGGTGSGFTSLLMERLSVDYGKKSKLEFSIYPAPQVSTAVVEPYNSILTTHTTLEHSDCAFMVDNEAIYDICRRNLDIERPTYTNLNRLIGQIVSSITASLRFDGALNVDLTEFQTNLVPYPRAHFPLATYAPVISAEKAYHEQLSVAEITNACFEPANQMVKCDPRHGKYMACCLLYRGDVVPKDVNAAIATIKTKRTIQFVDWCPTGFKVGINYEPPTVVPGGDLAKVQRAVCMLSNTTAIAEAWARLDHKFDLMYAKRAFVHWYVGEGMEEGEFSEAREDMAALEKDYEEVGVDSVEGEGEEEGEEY
Tubulin (Sus scrofa), sequence (P02554 whole entry, looked up): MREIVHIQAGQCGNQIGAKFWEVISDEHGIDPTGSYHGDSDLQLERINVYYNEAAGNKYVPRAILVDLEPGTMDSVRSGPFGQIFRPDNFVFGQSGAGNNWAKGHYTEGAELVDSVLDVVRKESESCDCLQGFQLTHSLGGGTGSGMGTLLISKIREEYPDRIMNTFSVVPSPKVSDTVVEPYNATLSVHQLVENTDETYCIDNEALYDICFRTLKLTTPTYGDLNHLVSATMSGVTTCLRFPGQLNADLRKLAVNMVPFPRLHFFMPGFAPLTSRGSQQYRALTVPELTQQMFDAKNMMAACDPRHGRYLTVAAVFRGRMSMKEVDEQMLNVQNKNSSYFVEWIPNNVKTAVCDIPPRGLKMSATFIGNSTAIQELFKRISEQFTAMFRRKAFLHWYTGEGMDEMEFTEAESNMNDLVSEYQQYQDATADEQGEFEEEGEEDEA

[6] = Half-life in Sprague-Dawley rat at 2 mg/kg, iv measured upto 12 hrs by UPLC-MS/ESI analysis; assay type: ADME, organism-based; conditions: in vivo
[7] = Antiproliferative activity against paclitaxel resistant human A549/TxR cells assessed as inhibition of cell proliferation incubated for 48 hrs by MTT assay; assay type: functional, cell-based
[8] = tested on: B16-F10; experiment: Antitumor immunity in C57 mouse implanted with mouse B16-F10 cells assessed as increase in CD3+ CD4+ helper T cells in tumor at 5 mg/kg, ip administered every day for 14 days by flow cytometric analysis (reference value: 0.332%); assay type: functional; conditions: time 14 day
[9] = tested on: B16-F10; experiment: Antitumor activity against mouse B16-F10 cells implanted in C57 mouse assessed as reduction in tumor weight at 2.5 mg/kg, ip administered every day for 14 days in the presence of NP19; assay type: functional, organism-based; conditions: time 14.0 day
[10] = Tmax in Sprague-Dawley rat at 2 mg/kg, iv measured upto 12 hrs by UPLC-MS/ESI analysis; assay type: ADME, organism-based; conditions: in vivo
[11] = tested on: B16-F10; experiment: Antitumor immunity in C57 mouse implanted with mouse B16-F10 cells assessed as increase in CD3+ CD4+ helper T cells in tumor at 2.5 mg/kg, ip administered every day for 14 days in the presence of NP19 by flow cytometric analysis (reference value: 0.332%); assay type: functional; conditions: time 14 day
[12] = tested on: HepG2; experiment: Induction of apoptosis in human HepG2 cells assessed as early apoptotic cells at 1 nM incubated for 48 hrs by Annexin V-FITC/PI staining based flow cytometric analysis (reference value: 7.01 %); assay type: functional
[13] = tested on: HepG2; experiment: Induction of apoptosis in human HepG2 cells assessed as viable cells at 1 nM incubated for 48 hrs by Annexin V-FITC/PI staining based flow cytometric analysis (reference value: 87.6%); assay type: functional; conditions: read-out: Activity
[14] = tested on: B16-F10; experiment: Antitumor activity against mouse B16-F10 cells implanted in C57 mouse assessed as tumor growth inhibition at 5 mg/kg, ip administered every day for 14 days relative to control; assay type: functional; conditions: B16-F10, 336 h, time 14 day, read-out: TGI
[15] = tested on: HepG2; experiment: Induction of apoptosis in human HepG2 cells assessed as late apoptotic cells at 5 nM incubated for 48 hrs by Annexin V-FITC/PI staining based flow cytometric analysis (reference value: 4.96 %); assay type: functional
[16] = Toxicity in C57 mouse implanted with mouse B16-F10 cells assessed as pathological changes in liver at 2.5 mg/kg, ip administered every day for 14 days in the presence of NP19 by H&E staining based microscopic analysis; assay type: organism-based; conditions: in vivo, 336 h, time 14 day
[17] = Acute toxicity in C57 mouse assessed as survival rate at 40.96 mg/kg, po administered daily for 14 days relative to control; assay type: organism-based; conditions: in vivo, time 14 day, read-out: Activity
[18] = tested on: HepG2; experiment: Induction of apoptosis in human HepG2 cells assessed as necrotic cells at 0.5 nM incubated for 48 hrs by Annexin V-FITC/PI staining based flow cytometric analysis (reference value: 0.443%); assay type: functional
[19] = tested on: HeLa; experiment: Antiproliferative activity against human HeLa cells assessed as inhibition of cell proliferation incubated for 48 hrs by MTT assay; assay type: functional, cell-based
[20] = tested on: MCF7; experiment: Antiproliferative activity against human MCF7 cells assessed as inhibition of cell proliferation incubated for 48 hrs by MTT assay; assay type: functional, cell-based; conditions: MCF7, 48 h
[21] = tested on: HepG2; experiment: Antiproliferative activity against human HepG2 cells assessed as inhibition of cell proliferation incubated for 48 hrs by MTT assay; assay type: functional, cell-based; conditions: HepG2, 48 h
[22] = tested on: HepG2; experiment: Cell cycle arrest in human HepG2 cells assessed as accumulation of cells at G1 phase at 5 nM incubated for 48 hrs by RNaseA/PI staining based flow cytometric analysis (reference value: 56.11%); assay type: functional
[23] = tested on: HepG2; experiment: Induction of apoptosis in human HepG2 cells assessed as late apoptotic cells at 0.5 nM incubated for 48 hrs by Annexin V-FITC/PI staining based flow cytometric analysis (reference value: 4.96 %); assay type: functional
[24] = tested on: HepG2; experiment: Antimigratory activity in human HepG2 cells assessed as reduction in recovery area at 5 nM incubated for 24 hrs by wound healing assay (reference value: 65.84%); assay type: functional; parameters: scale not given: the % may be the effect or the level left
[25] = tested on: B16-F10; experiment: Antitumor activity against mouse B16-F10 cells implanted in C57 mouse assessed as reduction in tumor volume at 2.5 mg/kg, ip administered every day for 14 days in the presence of NP19; assay type: functional, organism-based; conditions: time 14.0 day
[26] = MRT (0 to t) in Sprague-Dawley rat at 20 mg/kg, po measured upto 12 hrs by UPLC-MS/ESI analysis; assay type: ADME, organism-based; conditions: in vivo
[27] = Toxicity in C57 mouse implanted with mouse B16-F10 cells assessed as pathological changes in heart at 5 mg/kg, ip administered every day for 14 days by H&E staining based microscopic analysis; assay type: organism-based; conditions: in vivo, 336 h, time 14 day
[28] = Cmax in Sprague-Dawley rat at 2 mg/kg, iv measured upto 12 hrs by UPLC-MS/ESI analysis; assay type: ADME, organism-based; parameters: dose 2 mg/kg, time < 12 hrs, route iv; conditions: in vivo
[29] = MRT(0 to t) in Sprague-Dawley rat at 2 mg/kg, iv measured upto 12 hrs by UPLC-MS/ESI analysis; assay type: ADME, organism-based; conditions: in vivo
[30] = Clearance in Sprague-Dawley rat at 2 mg/kg, iv measured upto 12 hrs by UPLC-MS/ESI analysis; assay type: ADME, organism-based; conditions: in vivo
[31] = Cmax in Sprague-Dawley rat at 20 mg/kg, po measured upto 12 hrs by UPLC-MS/ESI analysis; assay type: ADME, organism-based; parameters: time < 12 hrs, dose 20 mg/kg, route po; conditions: in vivo
[32] = AUC (0 to t) in Sprague-Dawley rat at 20 mg/kg, po measured upto 12 hrs by UPLC-MS/ESI analysis; assay type: ADME, organism-based; parameters: time < 12 hrs, dose 20 mg/kg, route po; conditions: in vivo
[33] = tested on: HepG2; experiment: Antimigratory activity in human HepG2 cells assessed as reduction in recovery area at 0.5 nM incubated for 24 hrs by wound healing assay (reference value: 65.84%); assay type: functional; parameters: scale not given: the % may be the effect or the level left
[34] = Half-life in Sprague-Dawley rat at 20 mg/kg, po measured upto 12 hrs by UPLC-MS/ESI analysis; assay type: ADME, organism-based; conditions: in vivo
[35] = Toxicity in C57 mouse implanted with mouse B16-F10 cells assessed as pathological changes in liver at 5 mg/kg, ip administered every day for 14 days by H&E staining based microscopic analysis; assay type: organism-based; conditions: in vivo, 336 h, time 14 day
[36] = Acute toxicity in C57 mouse assessed as survival rate at 100 mg/kg, po administered daily for 14 days relative to control; assay type: organism-based; conditions: in vivo, time 14 day, read-out: Activity

COc1cc(-c2nccc3[nH]c(-c4cccc5c4ccn5C)nc23)cc(OC)c1OC
Activity [1]: Non-Toxic
AUC(0-inf) [2]: 3380 ng·h/mL
Activity [3]: 83.1%
IC50 [4]: 1010 nM
inhibition [5]: Dose-Dependent Effect
half-life [6]: 1.08 h
IC50 [7]: 15.3 nM
Activity [8]: 0.954%
Activity [9]: Active
Tmax [10]: 4.98 min
Activity [11]: 2.35%
Activity [12]: 31.3%
viability at 0.001 µM [13]: 59.6%
inhibition in vivo at 5 mg/kg [14]: 63%
Activity [15]: 5.74%
Activity [16]: Non-Toxic
survival at 336 h [17]: 100%
Activity [18]: 0.428%
IC50 [19]: 9 nM
IC50 [20]: 6 nM
IC50 [21]: 1 nM
Activity [22]: 20.19%
Activity [23]: 6.41%
Activity [24]: 22.16%
Activity [25]: Active
MRT last at 12 h [26]: 3.06 h
Activity [27]: Non-Toxic
Cmax [28]: 1730 ng/mL
MRT last at 12 h [29]: 1.79 h
clearance [30]: 11.2 mL/min/kg
Cmax [31]: 879 ng/mL
AUC(0-t) at 12 h [32]: 3330 ng·h/mL
Activity [33]: 42.2%
half-life [34]: 1.83 h
Activity [35]: Non-Toxic
survival at 336 h [36]: 0%
